Data as given in patent US10369160B2, “Methods of treating cancer” (Intercept Pharmaceuticals, Inc., priority 2016, dated 2019).

Assays:
[1] = test system: fibroblast growth factor 15 (Fgf15); test: Ileal FXR target gene expression, Fgf15, in Mdr2^−/− mice; assay type: in vivo; settings: Mdr2^−/− groups only (not FXR^−/−)
Source text: (§1) As expected, both INT-747 and INT-767 stimulated fibroblast growth factor 15 (Fgf15) and small heterodimer partner (Shp) gene expression in Mdr2^−/− groups only (FIGS. 7A and 7B).

[2] = test system: small heterodimer partner (Shp); test: Ileal FXR target gene expression, Shp, in Mdr2^−/− mice; assay type: in vivo; settings: Mdr2^−/− groups only (not FXR^−/−)
Source text: as §1

[3] = test system: Cholesterol 7 alpha-hydroxylase (cyp7a1); test: Hepatic FXR target gene expression, Cyp7a1, in Mdr2^−/− mice; assay type: in vivo; settings: Mdr2^−/− mice only (not FXR^−/−)
Source text: Cholesterol 7 alpha-hydroxylase (cyp7a1) is the rate limiting enzyme in the classical biosynthetic pathways which convert cholesterol into bile acids. Both INT-767 and INT-747 inhibited Cyp7a1 gene expression in Mdr2^−/− mice only (FIG. 8). The bile salt export pump (Bsep) is a membrane protein that uses energy of ATP hydrolysis to actively transport bile acid salts.

[4] = test system: bile salt export pump (Bsep); test: Hepatic FXR target gene expression, Bsep, in Mdr2^−/− mice; assay type: in vivo
Source text: Cholesterol 7 alpha-hydroxylase (cyp7a1) is the rate limiting enzyme in the classical biosynthetic pathways which convert cholesterol into bile acids. […] The bile salt export pump (Bsep) is a membrane protein that uses energy of ATP hydrolysis to actively transport bile acid salts.

FXR^−/− mice = test: Hepatocarcinogenesis in FXR^−/− mice (tumors, LW/BW, ALT/AST, serum bile acids); settings: for liver tumors found: diet 10 mg/kg for 15 months
Method: The effects of INT-747, INT-767, and control diet in Mdr2^−/− and FXR^−/− mice on the development of hepatocellular carcinoma were evaluated.
(§2) Mdr2^−/− and FXR^−/− mice were randomly divided into three experimental groups.
The mice were fed a specific rodent diet or a diet supplemented with INT-747, INT-767, or control diet for 15 months. All mice were housed under pathogen-free conditions in a temperature-controlled room (23° C.) on a 12-hour light/dark cycle and drank water ad libitum. […] After 16 months, the mice were sacrificed and serum, liver and intestine were collected. The total number of hepatic tumors was counted and the diameter of each tumor was measured.
(§3) • Mice (n=4) were fed control diet for 15 months. Group 2: INT-747 • Mice (n=8) were fed control diet supplemented with OCA at a dose of 10 mg/kg for 15 months. Group 3: INT-767 • Mice (n=15) were fed control diet supplemented with INT-767 at a dose of 10 mg/kg for 15 months.

Mdr2^−/− mice = test: Hepatocarcinogenesis in Mdr2^−/− mice (tumors, LW/BW, ALT/AST, serum bile acids)
Method: The effects of INT-747, INT-767, and control diet in Mdr2^−/− and FXR^−/− mice on the development of hepatocellular carcinoma were evaluated. INT-747 is a FXR agonist while INT-767 is a dual FXR/TGR5 agonist.
as §2
The mice were fed a specific rodent diet or a diet supplemented with INT-747, INT-767, or control diet for 15 months. […] After 16 months, the mice were sacrificed and serum, liver and intestine were collected. The total number of hepatic tumors was counted and the diameter of each tumor was measured.
as §3

FXR = target: T1, FXR (Homo sapiens, UniProt Q96RI1); test: Potency for FXR (INT-767 versus INT-747); settings: greater than INT-747
T1 sequence (Q96RI1 1-486): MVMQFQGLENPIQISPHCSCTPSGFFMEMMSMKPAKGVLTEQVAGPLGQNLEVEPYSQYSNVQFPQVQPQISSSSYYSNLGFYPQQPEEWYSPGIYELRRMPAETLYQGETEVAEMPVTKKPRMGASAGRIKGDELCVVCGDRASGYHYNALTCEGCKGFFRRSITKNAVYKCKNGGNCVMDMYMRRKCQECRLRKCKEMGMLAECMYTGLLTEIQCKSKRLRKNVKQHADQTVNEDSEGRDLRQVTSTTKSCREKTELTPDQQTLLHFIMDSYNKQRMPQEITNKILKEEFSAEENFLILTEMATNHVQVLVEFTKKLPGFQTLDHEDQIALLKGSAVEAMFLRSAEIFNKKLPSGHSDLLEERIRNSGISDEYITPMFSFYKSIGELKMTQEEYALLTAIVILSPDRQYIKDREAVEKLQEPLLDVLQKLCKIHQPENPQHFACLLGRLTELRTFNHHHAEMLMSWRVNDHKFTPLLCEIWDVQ

SMILES	ileal Fgf15 gene expression [1]	ileal Shp gene expression [2]	hepatic Cyp7a1 gene expression [3]	hepatic Bsep induction [4]	liver tumors found (FXR^−/− mice)	liver tumors found (appearance/size) (Mdr2^−/− mice; diet 10 mg/kg for 15 months)	tumors with a diameter larger than 5 mm (Mdr2^−/− mice; diet 10 mg/kg for 15 months) [%]	potency for FXR relative to INT-747 (FXR)	ALT levels (FXR^−/− mice)	AST levels (FXR^−/− mice)	LW/BW ratio (liver weight/body weight) (FXR^−/− mice)	serum bile acid levels (FXR^−/− mice)	serum bile acid levels (Mdr2^−/− mice)	LW/BW ratio (liver weight/body weight) (Mdr2^−/− mice; compared to control and INT-747 treated mice)	hepatocellular carcinoma development (number of hepatic tumors) (Mdr2^−/− mice; diet 10 mg/kg for 15 months, compared to control)	ALT levels (Mdr2^−/− mice; vs control)	AST levels (Mdr2^−/− mice; vs control)
CC[C@H]1[C@@H](O)[C@@H]2[C@H](CC[C@]3(C)[C@@H]([C@H](C)CCC(=O)O)CC[C@@H]23)[C@@]2(C)CC[C@@H](O)C[C@@H]12 [INT-747, 6α-ethyl-3α,7α-dihydroxy-5β-cholan-24-oic acid]	stimulated	stimulated	inhibited	did not promote hepatic Bsep induction	several large liver tumors	clearly identifiable liver tumors	~80	–	–	–	–	–	–	–	–	–	–
CC[C@H]1[C@@H](O)[C@@H]2[C@H](CC[C@]3(C)[C@@H]([C@H](C)CCOS(=O)(=O)[O-])CC[C@@H]23)[C@@]2(C)CC[C@@H](O)C[C@@H]12.[Na+] [INT-767, 6α-ethyl-3α,7α,23-trihydroxy-24-nor-5β-cholan-23-sulphate sodium]	stimulated	stimulated	–	induced hepatic Bsep activation	several large liver tumors	minute tumors	–	about 10 fold	no difference	no difference	No difference	no reduction occurred	significantly reduced	significant reduction	clearly prevented hepatocellular carcinoma development	significantly reduced	significantly reduced
CC[C@H]1[C@@H](O)C2C3CC[C@H]([C@H](C)CCOS(=O)(=O)[O-])[C@@]3(C)CCC2[C@@]2(C)CC[C@@H](O)C[C@@H]12.[Na+] (stereo partly drawn) [INT-767, 6α-ethyl-3α,7α,23-trihydroxy-24-nor-5β-cholan-23-sulphate sodium]	–	–	inhibited	–	–	–	–	–	–	–	–	–	–	–	–	–	–
